ChEMBL document CHEMBL4004849, “Tetrazolylmethyl quinolines: Design, docking studies, synthesis, anticancer and antifungal analyses” (2017)
In brackets after ≈: the same amount, converted by molar mass. Activity calls are given as the source filed them. No cut-off for these calls is given here.

Legend:
Type in all cases: functional
HL-60(TB) = assay: Growth inhibition of human HL-60(TB) cells at 10^-5 M incubated for 48 hrs by sulforhodamine B assay relative to control
K562 = assay: Growth inhibition of human K562 cells at 10^-5 M incubated for 48 hrs by sulforhodamine B assay relative to control
MOLT-4 = assay: Growth inhibition of human MOLT4 cells at 10^-5 M incubated for 48 hrs by sulforhodamine B assay relative to control
SR = assay: Growth inhibition of human SR cells at 10^-5 M incubated for 48 hrs by sulforhodamine B assay relative to control
A549 = assay: Growth inhibition of human A549/ATCC cells at 10^-5 M incubated for 48 hrs by sulforhodamine B assay relative to control
EKVX = assay: Growth inhibition of human EKVX cells at 10^-5 M incubated for 48 hrs by sulforhodamine B assay relative to control
NCI-H226 = assay: Growth inhibition of human NCI-H226 cells at 10^-5 M incubated for 48 hrs by sulforhodamine B assay relative to control
NCI-H23 = assay: Growth inhibition of human NCI-H23 cells at 10^-5 M incubated for 48 hrs by sulforhodamine B assay relative to control
NCI-H460 = assay: Growth inhibition of human NCI-H460 cells at 10^-5 M incubated for 48 hrs by sulforhodamine B assay relative to control
HCC 2998 = assay: Growth inhibition of human HCC2998 cells at 10^-5 M incubated for 48 hrs by sulforhodamine B assay relative to control
HCT-116 = assay: Growth inhibition of human HCT116 cells at 10^-5 M incubated for 48 hrs by sulforhodamine B assay relative to control
SW-620 = assay: Growth inhibition of human SW620 cells at 10^-5 M incubated for 48 hrs by sulforhodamine B assay relative to control
SF-268 = assay: Growth inhibition of human SF268 cells at 10^-5 M incubated for 48 hrs by sulforhodamine B assay relative to control
SF-295 = assay: Growth inhibition of human SF295 cells at 10^-5 M incubated for 48 hrs by sulforhodamine B assay relative to control
SF-539 = assay: Growth inhibition of human SF539 cells at 10^-5 M incubated for 48 hrs by sulforhodamine B assay relative to control
SNB-19 = assay: Growth inhibition of human SNB19 cells at 10^-5 M incubated for 48 hrs by sulforhodamine B assay relative to control
SNB-75 = assay: Growth inhibition of human SNB75 cells at 10^-5 M incubated for 48 hrs by sulforhodamine B assay relative to control
U-251 = assay: Growth inhibition of human U251 cells at 10^-5 M incubated for 48 hrs by sulforhodamine B assay relative to control
LOX IMVI = assay: Growth inhibition of human LOXIMVI cells at 10^-5 M incubated for 48 hrs by sulforhodamine B assay relative to control
Malme-3M = assay: Growth inhibition of human MALME-3M cells at 10^-5 M incubated for 48 hrs by sulforhodamine B assay relative to control
M14 = assay: Growth inhibition of human M14 cells at 10^-5 M incubated for 48 hrs by sulforhodamine B assay relative to control
MDA-MB-435 = assay: Growth inhibition of human MDA-MB-435 cells at 10^-5 M incubated for 48 hrs by sulforhodamine B assay relative to control
SK-MEL-28 = assay: Growth inhibition of human SK-MEL-28 cells at 10^-5 M incubated for 48 hrs by sulforhodamine B assay relative to control
UACC-257 = assay: Growth inhibition of human UACC257 cells at 10^-5 M incubated for 48 hrs by sulforhodamine B assay relative to control
UACC-62 = assay: Growth inhibition of human UACC62 cells at 10^-5 M incubated for 48 hrs by sulforhodamine B assay relative to control
IGROV-1 = assay: Growth inhibition of human IGROV1 cells at 10^-5 M incubated for 48 hrs by sulforhodamine B assay relative to control
OVCAR-3 = assay: Growth inhibition of human OVCAR3 cells at 10^-5 M incubated for 48 hrs by sulforhodamine B assay relative to control
OVCAR-5 = assay: Growth inhibition of human OVCAR5 cells at 10^-5 M incubated for 48 hrs by sulforhodamine B assay relative to control
OVCAR-8 = assay: Growth inhibition of human OVCAR8 cells at 10^-5 M incubated for 48 hrs by sulforhodamine B assay relative to control
SK-OV-3 = assay: Growth inhibition of human SKOV3 cells at 10^-5 M incubated for 48 hrs by sulforhodamine B assay relative to control
786-0 = assay: Growth inhibition of human 786-0 cells at 10^-5 M incubated for 48 hrs by sulforhodamine B assay relative to control
ACHN = assay: Growth inhibition of human ACHN cells at 10^-5 M incubated for 48 hrs by sulforhodamine B assay relative to control
CAKI-1 = assay: Growth inhibition of human Caki1 cells at 10^-5 M incubated for 48 hrs by sulforhodamine B assay relative to control
SN12C = assay: Growth inhibition of human SN12C cells at 10^-5 M incubated for 48 hrs by sulforhodamine B assay relative to control
TK-10 = assay: Growth inhibition of human TK10 cells at 10^-5 M incubated for 48 hrs by sulforhodamine B assay relative to control
UO-31 = assay: Growth inhibition of human UO31 cells at 10^-5 M incubated for 48 hrs by sulforhodamine B assay relative to control
MDA-MB-231 = assay: Growth inhibition of human MDA-MB-231/ATCC cells at 10^-5 M incubated for 48 hrs by sulforhodamine B assay relative to control
Hs-578T = assay: Growth inhibition of human Hs 578T cells at 10^-5 M incubated for 48 hrs by sulforhodamine B assay relative to control
BT-549 = assay: Growth inhibition of human BT549 cells at 10^-5 M incubated for 48 hrs by sulforhodamine B assay relative to control
T47D = assay: Growth inhibition of human T47D cells at 10^-5 M incubated for 48 hrs by sulforhodamine B assay relative to control
MDA-MB-468 = assay: Growth inhibition of human MDA-MB-468 cells at 10^-5 M incubated for 48 hrs by sulforhodamine B assay relative to control
Candida albicans [1] = assay: Antifungal activity against Candida albicans at 100 ug/ml by disc diffusion method; settings: read-out: IZ
Candida albicans [2] = assay: Antifungal activity against Candida albicans after 24 hrs by serial dilution method
Aspergillus fumigatus [3] = assay: Antifungal activity against Aspergillus fumigatus at 100 ug/ml by disc diffusion method; settings: read-out: IZ
Aspergillus fumigatus [4] = assay: Antifungal activity against Aspergillus fumigatus after 24 hrs by serial dilution method

## Clc1nc2ccc(Br)cc2cc1Cn1nnnc1CSc1ccccc1
HL-60(TB)
  growth inhibition (GI): Active
K562
  growth inhibition (GI): Active
MOLT-4
  growth inhibition (GI): Active
SR
  growth inhibition (GI): Active
A549
  growth inhibition (GI): Active
EKVX
  growth inhibition (GI): Active
NCI-H226
  growth inhibition (GI): Active
NCI-H23
  growth inhibition (GI): Active
NCI-H460
  growth inhibition (GI): Active
HCC 2998
  growth inhibition (GI): Active
HCT-116
  growth inhibition (GI): Active
SW-620
  growth inhibition (GI): Active
SF-268
  growth inhibition (GI): Active
SF-295
  growth inhibition (GI): Active
SF-539
  growth inhibition (GI): Active
SNB-19
  growth inhibition (GI): Active
SNB-75
  growth inhibition (GI): Active
U-251
  growth inhibition (GI): Active
LOX IMVI
  growth inhibition (GI): Active
Malme-3M
  growth inhibition (GI): Active
M14
  growth inhibition (GI): Active
MDA-MB-435
  growth inhibition (GI): Active
SK-MEL-28
  growth inhibition (GI): Active
UACC-257
  growth inhibition (GI): Active
UACC-62
  growth inhibition (GI): Active
IGROV-1
  growth inhibition (GI): Active
OVCAR-3
  growth inhibition (GI): Active
OVCAR-5
  growth inhibition (GI): Active
OVCAR-8
  growth inhibition (GI): Active
SK-OV-3
  growth inhibition (GI): Active
786-0
  growth inhibition (GI): Active
ACHN
  growth inhibition (GI): Active
CAKI-1
  growth inhibition (GI): Active
SN12C
  growth inhibition (GI): Active
TK-10
  growth inhibition (GI): Active
UO-31
  growth inhibition (GI): Active
MDA-MB-231
  growth inhibition (GI): Active
Hs-578T
  growth inhibition (GI): Active
BT-549
  growth inhibition (GI): Active
T47D
  growth inhibition (GI): Active
MDA-MB-468
  growth inhibition (GI): Active
Candida albicans [1]
  zone of inhibition at 100 µg/mL: 12 mm
Candida albicans [2]
  MIC: 25 µg/mL (≈ 56 µM)
Aspergillus fumigatus [3]
  zone of inhibition at 100 µg/mL: 20 mm
Aspergillus fumigatus [4]
  MIC: 5 µg/mL (≈ 11.2 µM)

## COc1ccc2nc(Cl)c(Cn3nnc(Cc4ccccc4)n3)cc2c1
HL-60(TB); HL-60, 48 h, read-out: GI
  inhibition of growth at 10 µM: 43.4%
K562; K562, 48 h, read-out: GI
  inhibition of growth at 10 µM: 67.1%
MOLT-4; MOLT-4, 48 h, read-out: GI
  inhibition of growth at 10 µM: 89.7%
SR; read-out: GI
  inhibition of growth at 10 µM: 77.1%
A549; A549, 48 h, read-out: GI
  inhibition of growth at 10 µM: 68.5%
EKVX; read-out: GI
  inhibition of growth at 10 µM: 75.5%
NCI-H226; NCI-H226, 48 h, read-out: GI
  inhibition of growth at 10 µM: 61%
NCI-H23; NCI-H23, 48 h, read-out: GI
  inhibition of growth at 10 µM: 67.5%
NCI-H460; NCI-H460, 48 h, read-out: GI
  inhibition of growth at 10 µM: 60%
HCC 2998; HCC 2998, 48 h, read-out: GI
  inhibition of growth at 10 µM: 41%
HCT-116; HCT-116, 48 h, read-out: GI
  inhibition of growth at 10 µM: 70.8%
SW-620; SW-620, 48 h, read-out: GI
  inhibition of growth at 10 µM: 33.6%
SF-268; SF-268, 48 h, read-out: GI
  inhibition of growth at 10 µM: 48.5%
SF-295; SF-295, 48 h, read-out: GI
  inhibition of growth at 10 µM: 62.6%
SF-539; SF-539, 48 h, read-out: GI
  inhibition of growth at 10 µM: 32.5%
SNB-19; SNB-19, 48 h, read-out: GI
  inhibition of growth at 10 µM: 42%
SNB-75; SNB-75, 48 h, read-out: GI
  inhibition of growth at 10 µM: 42.9%
U-251; U-251, 48 h, read-out: GI
  inhibition of growth at 10 µM: 46.8%
LOX IMVI; read-out: GI
  inhibition of growth at 10 µM: 57.1%
Malme-3M; read-out: GI
  inhibition of growth at 10 µM: 65.6%
M14; M14, 48 h, read-out: GI
  inhibition of growth at 10 µM: 69.7%
MDA-MB-435; MDA-MB-435, 48 h, read-out: GI
  inhibition of growth at 10 µM: 70.7%
SK-MEL-28; SK-MEL-28, 48 h, read-out: GI
  inhibition of growth at 10 µM: 52.5%
UACC-257; UACC-257, 48 h, read-out: GI
  inhibition of growth at 10 µM: 73.5%
UACC-62; UACC-62, 48 h, read-out: GI
  inhibition of growth at 10 µM: 64.9%
IGROV-1; IGROV-1, 48 h, read-out: GI
  inhibition of growth at 10 µM: 56.8%
OVCAR-3; OVCAR-3, 48 h, read-out: GI
  inhibition of growth at 10 µM: 50.1%
OVCAR-5; OVCAR-5, 48 h, read-out: GI
  inhibition of growth at 10 µM: 17.2%
OVCAR-8; OVCAR-8, 48 h, read-out: GI
  inhibition of growth at 10 µM: 59.5%
SK-OV-3; SK-OV-3, 48 h, read-out: GI
  inhibition of growth at 10 µM: 50.6%
786-0; 786-0, 48 h, read-out: GI
  inhibition of growth at 10 µM: 52.5%
ACHN; read-out: GI
  inhibition of growth at 10 µM: 58.5%
CAKI-1; CAKI-1, 48 h, read-out: GI
  inhibition of growth at 10 µM: 56.1%
SN12C; read-out: GI
  inhibition of growth at 10 µM: 42.7%
TK-10; TK-10, 48 h, read-out: GI
  inhibition of growth at 10 µM: 65.1%
UO-31; UO-31, 48 h, read-out: GI
  inhibition of growth at 10 µM: 85.3%
MDA-MB-231; MDA-MB-231, 48 h, read-out: GI
  inhibition of growth at 10 µM: 49.3%
Hs-578T; read-out: GI
  inhibition of growth at 10 µM: 31.1%
BT-549; BT-549, 48 h, read-out: GI
  inhibition of growth at 10 µM: 79.7%
T47D; read-out: GI
  inhibition of growth at 10 µM: 97.6%
MDA-MB-468; MDA-MB-468, 48 h, read-out: GI
  inhibition of growth at 10 µM: 70.1%
Candida albicans [1]
  zone of inhibition at 100 µg/mL: 16 mm
Candida albicans [2]
  MIC: 10 µg/mL (≈ 27.3 µM)
Aspergillus fumigatus [3]
  zone of inhibition at 100 µg/mL: 20 mm
Aspergillus fumigatus [4]
  MIC: 25 µg/mL (≈ 68.3 µM)
